Results from patent US20200216439A1, “HETERO-1,5,6,7-TETRAHYDRO-4H-INDOL-4-ONES” (BAYER PHARMA AKTIENGESELLSCHAFT, priority 2015, published 2020).

Each compound was assayed against T1, catalytic domain of human Bub1 (amino acids 704-1085) (Homo sapiens, UniProt O43683) (assay: Bub1 kinase assay (TR-FRET)). Conditions: TR-FRET; ATP 10 μM, peptide substrate 1 μM; 60 min at 22° C.; average or median if tested more than once; read-out: Inhibition of Bub1 kinase IC50.
T1 construct: catalytic domain of human Bub1 (amino acids 704-1085); His6 (N); made in house; host or cells: Hi5 insect cells
Type: biochemical
Method in brief: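 Human Bub1 catalytic domain (704-1085, His6-tagged, Hi5-expressed, ~200 ng/mL) preincubated with compound 15 min at 22 °C, then reacted 60 min at 22 °C with 10 μM ATP and 1 μM biotinylated peptide substrate, pH 7.5. EDTA stop; TR-FRET 665/620 ratio; IC50 from 4-parameter fit, 11 concentrations in duplicate.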

T1 sequence (O43683 704-1085): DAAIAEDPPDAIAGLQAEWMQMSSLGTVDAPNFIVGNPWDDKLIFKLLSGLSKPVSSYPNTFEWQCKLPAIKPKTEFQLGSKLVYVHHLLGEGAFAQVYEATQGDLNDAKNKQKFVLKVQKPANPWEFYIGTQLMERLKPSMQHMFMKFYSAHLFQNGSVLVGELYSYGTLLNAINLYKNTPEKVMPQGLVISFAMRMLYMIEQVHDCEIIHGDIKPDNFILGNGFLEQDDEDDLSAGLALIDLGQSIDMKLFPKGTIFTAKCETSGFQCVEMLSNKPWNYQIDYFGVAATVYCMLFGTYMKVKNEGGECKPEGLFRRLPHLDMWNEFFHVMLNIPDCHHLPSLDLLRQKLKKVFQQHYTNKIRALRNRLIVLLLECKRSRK

With `CS(=O)(=O)N1CC(=O)c2c([nH]c(-c3ccncc3OCC(F)(F)F)c2Nc2ccccc2)C1` [Example 233, 6-(Methylsulfonyl)-3-(phenylamino)-2-[3-(2,2,2-trifluoroethoxy)pyridin-4-yl]-1,5,6,7-tetrahydro-4H-pyrrolo[2,3-c]pyridin-4-one] as the compound, how does the IC50 read?
Its IC50 is 0.036 µM.

`CCOC(=O)N1CC(=O)c2c([nH]c(-c3ccncc3)c2Nc2ccccc2)C1` [Example 76, Ethyl 4-oxo-3-(phenylamino)-2-(pyridin-4-yl)-1,4,5,7-tetrahydro-6H-pyrrolo[2,3-c]pyridine-6-carboxylate] was tested. Which IC50 did it give?
Its IC50 is 0.007 µM.

For `CSCC(=O)Nc1cc(-c2[nH]c3c(c2Nc2ccccc2)C(=O)COC3)ccn1` [Example 46, 2-(Methylsulfanyl)-N-{4-[4-oxo-3-(phenylamino)-1,4,5,7-tetrahydropyrano[3,4-b]pyrrol-2-yl]pyridin-2-yl}acetamide], which IC50 is on record?
Its IC50 is 0.093 µM.

`CN1CCN(C(=O)N2CC(=O)c3c([nH]c(-c4ccncc4OCC4CC4)c3Nc3ccccc3)C2)CC1` [Example 252, 2-[3-(Cyclopropylmethoxy)pyridin-4-yl]-6-[(4-methylpiperazin-1-yl)carbonyl]-3-(phenylamino)-1,5,6,7-tetrahydro-4H-pyrrolo[2,3-c]pyridin-4-one] was tested. Which IC50 did it give?
The IC50 was 0.048 µM.

`CCN(CC)C(=O)N1CC(=O)c2c([nH]c(-c3ccnc(NC(=O)[C@@H]4C[C@@H]4F)c3)c2Nc2ccccc2)C1` [Example 217, N,N-Diethyl-2-[2-([(1S,2S)-2-fluorocyclopropyl]carbonylamino)pyridin-4-yl]-4-oxo-3-(phenylamino)-1,4,5,7-tetrahydro-6H-pyrrolo[2,3-c]pyridine-6-carboxamide] was tested. Which IC50 did it give?
The IC50 was 0.004 µM.

Which IC50 does the source give for `Cc1nccc(-c2[nH]c3c(c2Nc2ccccc2)C(=O)CNC3)n1` [Example 16, 2-(2-Methylpyrimidin-4-yl)-3-(phenylamino)-1,5,6,7-tetrahydro-4H-pyrrolo[2,3-c]pyridin-4-one] here?
Its IC50 is 0.949 µM.

Which IC50 does the source give for `O=C(Nc1cc(-c2[nH]c3c(c2Nc2ccccc2)C(=O)CN(S(=O)(=O)c2cnc[nH]2)C3)ccn1)c1ccc(F)cc1` [Example 160, N-{4-[3-Anilino-6-(1H-imidazol-5-ylsulfonyl)-4-oxo-4,5,6,7-tetrahydro-1H-pyrrolo[2,3-c]pyridin-2-yl]pyridin-2-yl}-4-fluorobenzamide] here?
Its IC50 is 0.004 µM.

How did the IC50 turn out when `CC(C)(O)CC(=O)N1CC(=O)c2c([nH]c(-c3ccncc3)c2Nc2ccccc2)C1` [Example 57, 6-(3-Hydroxy-3-methylbutanoyl)-3-(phenylamino)-2-(pyridin-4-yl)-1,5,6,7-tetrahydro-4H-pyrrolo[2,3-c]pyridin-4-one] was run?
Its IC50 is 0.008 µM.

Which IC50 does the source give for `COc1cnccc1-c1[nH]c2c(c1Nc1ccccc1)C(=O)CN(C(C)=O)C2` [Example 105, 6-Acetyl-2-(3-methoxypyridin-4-yl)-3-(phenylamino)-1,5,6,7-tetrahydro-4H-pyrrolo[2,3-c]pyridin-4-one] here?
Its IC50 is 0.012 µM.

Which IC50 does the source give for `CC(=O)Nc1cc(-c2[nH]c3c(c2Nc2ccccc2)C(=O)CN(C(=O)CC(F)(F)F)C3)ccn1` [Example 169, N-{4-[3-Anilino-4-oxo-6-(3,3,3-trifluoropropanoyl)-4,5,6,7-tetrahydro-1H-pyrrolo[2,3-c]pyridin-2-yl]pyridin-2-yl}acetamide] here?
Its IC50 is 0.005 µM.

For `O=C1CN(S(=O)(=O)c2cnc[nH]2)Cc2[nH]c(-c3ccnc(NC(=O)C4CC4(F)F)c3)c(Nc3ccccc3)c21` (racemic) [Example 164, (1RS)—N-{4-[3-Anilino-6-(1H-imidazol-5-ylsulfonyl)-4-oxo-4,5,6,7-tetrahydro-1H-pyrrolo[2,3-c]pyridin-2-yl]pyridin-2-yl}-2,2-difluorocyclopropanecarboxamide], which IC50 is on record?
Its IC50 is 0.006 µM.

`CC(C)(C)NC(=O)N1CC(=O)c2c([nH]c(-c3ccncc3)c2Nc2ccccc2)C1` [Example 85, N-tert-Butyl-4-oxo-3-(phenylamino)-2-(pyridin-4-yl)-1,4,5,7-tetrahydro-6H-pyrrolo[2,3-c]pyridine-6-carboxamide] was tested. Which IC50 did it give?
Its IC50 is 0.013 µM.

For `COc1ccc(C(=O)Nc2cc(-c3[nH]c4c(c3Nc3ccccc3)C(=O)CN(C(=O)N3C[C@@H](C)O[C@@H](C)C3)C4)ccn2)cc1F` [Example 292, N-4-[6-[(2R,6S)-2,6-Dimethylmorpholin-4-yl]carbonyl-4-oxo-3-(phenylamino)-4,5,6,7-tetrahydro-1H-pyrrolo[2,3-c]pyridin-2-yl]pyridin-2-yl-3-fluoro-4-methoxybenzamide], which IC50 is on record?
Its IC50 is 0.214 µM.

How did the IC50 turn out when `O=C(Nc1cc(-c2[nH]c3c(c2Nc2ccccc2)C(=O)CNC3)ccn1)c1ccc(F)cc1` [Example 134, N-[4-(3-anilino-4-oxo-4,5,6,7-tetrahydro-1H-pyrrolo[2,3-c]pyridin-2-yl)pyridin-2-yl]-4-fluorobenzamide] was run?
Its IC50 is 0.036 µM.

How did the IC50 turn out when `CC(C)S(=O)(=O)N1CC(=O)c2c([nH]c(-c3ccnc(NC(=O)[C@@H]4C[C@@H]4F)c3)c2Nc2ccccc2)C1` [Example 214, (1S,2S)-2-Fluoro-N-4-[4-oxo-3-(phenylamino)-6-(propan-2-ylsulfonyl)-4,5,6,7-tetrahydro-1H-pyrrolo[2,3-c]pyridin-2-yl]pyridin-2-ylcyclopropanecarboxamide] was run?
The IC50 was 0.003 µM.

How did the IC50 turn out when `CC(=O)Nc1cc(-c2[nH]c3c(c2Nc2ccccc2)C(=O)CN(S(=O)(=O)c2cnc[nH]2)C3)ccn1` [Example 117, N-{4-[6-(1H-Imidazol-5-ylsulfonyl)-4-oxo-3-(phenylamino)-4,5,6,7-tetrahydro-1H-pyrrolo[2,3-c]pyridin-2-yl]pyridin-2-yl}acetamide] was run?
Its IC50 is 0.009 µM.

`CCNC(=O)N1CC(=O)c2c([nH]c(-c3ccnc(NC(C)=O)c3)c2Nc2ccccc2)C1` [Example 28] was tested. Which IC50 did it give?
The IC50 was 0.013 µM.

Which IC50 does the source give for `CC(C)OC(=O)N1CC(=O)c2c([nH]c(-c3ccnc(NC(=O)c4cncs4)c3)c2Nc2ccccc2)C1` [Example 156, Isopropyl 3-anilino-4-oxo-2-{2-[(1,3-thiazol-5-ylcarbonyl)amino]pyridin-4-yl}-1,4,5,7-tetrahydro-6H-pyrrolo[2,3-c]pyridine-6-carboxylate] here?
Its IC50 is 0.012 µM.

With `Cc1nccc(-c2[nH]c3c(c2Nc2ccccc2)C(=O)CN(S(C)(=O)=O)C3)n1` [Example 29, 2-(2-Methylpyrimidin-4-yl)-6-(methylsulfonyl)-3-(phenylamino)-1,5,6,7-tetrahydro-4H-pyrrolo[2,3-c]pyridin-4-one] as the compound, how does the IC50 read?
Its IC50 is 0.024 µM.

How did the IC50 turn out when `Cc1ccc(Nc2c(-c3ccnc(N)c3)[nH]c3c2C(=O)CN(C(=O)OC(C)(C)C)C3)cc1` [Example 294, tert-butyl 2-(2-Aminopyridin-4-yl)-3-[(4-methylphenyl)amino]-4-oxo-1,4,5,7-tetrahydro-6H-pyrrolo[2,3-c]pyridine-6-carboxylate] was run?
Its IC50 is 0.499 µM.

For `CC(=O)Nc1cc(-c2[nH]c3c(c2Nc2ccccc2)C(=O)CN(C(C)=O)C3)ccn1` [Example 112, N-{4-[6-Acetyl-4-oxo-3-(phenylamino)-4,5,6,7-tetrahydro-1H-pyrrolo[2,3-c]pyridin-2-yl]pyridin-2-yl}acetamide], which IC50 is on record?
The IC50 was 0.009 µM.

With `CC(=O)Nc1cc(-c2[nH]c3c(c2Nc2ccccc2)C(=O)CN(C(=O)c2cncs2)C3)ccn1` [Example 175, N-{4-[3-Anilino-4-oxo-6-(1,3-thiazol-5-ylcarbonyl)-4,5,6,7-tetrahydro-1H-pyrrolo[2,3-c]pyridin-2-yl]pyridin-2-yl}acetamide] as the compound, how does the IC50 read?
The IC50 was 0.008 µM.

Which IC50 does the source give for `O=C1CNCc2[nH]c(-c3ccncc3OCC3CC3)c(Nc3ccccc3)c21` [Example 227, 3-anilino-2-[3-(cyclopropylmethoxy)pyridin-4-yl]-1,5,6,7-tetrahydro-4H-pyrrolo[2,3-c]pyridin-4-one] here?
The IC50 was 0.14 µM.

How did the IC50 turn out when `CN(C)C(=O)N1CC(=O)c2c([nH]c(-c3ccncc3OCC(F)(F)F)c2Nc2ccccc2)C1` [Example 244, N,N-Dimethyl-4-oxo-3-(phenylamino)-2-[3-(2,2,2-trifluoroethoxy)pyridin-4-yl]-1,4,5,7-tetrahydro-6H-pyrrolo[2,3-c]pyridine-6-carboxamide] was run?
Its IC50 is 0.018 µM.

For `CNC(=O)N1CC(=O)c2c([nH]c(-c3ccncc3)c2Nc2ccccc2)C1` [Example 81, N-Methyl-4-oxo-3-(phenylamino)-2-(pyridin-4-yl)-1,4,5,7-tetrahydro-6H-pyrrolo[2,3-c]pyridine-6-carboxamide], which IC50 is on record?
Its IC50 is 0.004 µM.

How did the IC50 turn out when `O=C(Nc1cc(-c2[nH]c3c(c2Nc2ccccc2)C(=O)COC3)ccn1)c1cnco1` [Example 50, N-{4-[4-Oxo-3-(phenylamino)-1,4,5,7-tetrahydropyrano[3,4-b]pyrrol-2-yl]pyridin-2-yl}-1,3-oxazole-5-carboxamide] was run?
The IC50 was 0.026 µM.

With `O=C1CN(C(=O)N2CCOCC2)Cc2[nH]c(-c3ccncc3)c(Nc3ccccc3)c21` [Example 94, 6-(Morpholin-4-ylcarbonyl)-3-(phenylamino)-2-(pyridin-4-yl)-1,5,6,7-tetrahydro-4H-pyrrolo[2,3-c]pyridin-4-one] as the compound, how does the IC50 read?
The IC50 was 0.003 µM.

Which IC50 does the source give for `COc1cc(C(=O)Nc2cc(-c3c(Nc4ccccc4)c4c(n3C)CN(C(=O)OC(C)(C)C)CC4=O)ccn2)ccc1F` [Example 256, tert-Butyl 2-2-[(4-fluoro-3-methoxybenzoyl)amino]pyridin-4-yl-1-methyl-4-oxo-3-(phenylamino)-1,4,5,7-tetrahydro-6H-pyrrolo[2,3-c]pyridine-6-carboxylate] here?
The IC50 was 0.936 µM.

Which IC50 does the source give for `CC(=O)Nc1cc(-c2[nH]c3c(c2Nc2ccccc2)C(=O)CN(C(=O)c2cscn2)C3)ccn1` [Example 194, N-{4-[3-Anilino-4-oxo-6-(1,3-thiazol-4-ylcarbonyl)-4,5,6,7-tetrahydro-1H-pyrrolo[2,3-c]pyridin-2-yl]pyridin-2-yl}acetamide] here?
The IC50 was 0.046 µM.

With `CS(=O)(=O)CCNC(=O)N1CC(=O)c2c([nH]c(-c3ccncc3)c2Nc2ccccc2)C1` [Example 89, N-[2-(Methylsulfonyl)ethyl]-4-oxo-3-(phenylamino)-2-(pyridin-4-yl)-1,4,5,7-tetrahydro-6H-pyrrolo[2,3-c]pyridine-6-carboxamide] as the compound, how does the IC50 read?
Its IC50 is 0.031 µM.
